Test results published in patent publication US12139481B2, “Compositions comprising macrocycle derivatives incorporating bridged macrocycles and methods of producing and using same” (Southwestern Oklahoma State University, priority 2015, dated 2024).
Several values for one entry are separate records, joined by “and”; a condition that tells them apart may be missing. Equal values may be shown once. Read-outs that look alike come from different tables or passages of the source.

Assays:
[1] = test system: L. donovani promastigotes; assay: Antileishmanial Alamar Blue assay on promastigotes; assay type: cell-based, Leishmania donovani; details: for X more potent than Pentamidine: L. donovani, ratio of molar IC50 to Pentamidine
Procedure, shortened: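 L. donovani promastigotes in RPMI 1640 with 10% FCS, from 3-day culture, were set at 5×10^5/mL and exposed to compound (50-3.1 μg/mL) for 48 hours at 26° C. Growth read by Alamar Blue fluorescence (ex 544/em 590 nm); IC50 from percent growth versus concentration.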

[2] = test system: Staphylococcus aureus ATCC 29213; assay: Antibacterial broth dilution assay against S. aureus (modified CLSI); assay type: cell-based; details: for S. aureus IC50 / IC50: in vitro; for IC50: converted with molecular weight; for X more potent than ciprofloxacen: molar IC50 ratio versus ciprofloxacen
Procedure, shortened: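 Modified CLSI broth microdilution with OD monitoring before and after incubation at 35 °C: Candida in RPMI 1640/MOPS pH 6.0, 1.5×10^3 CFU/ml, 46-50 h; Staphylococcus in cation-adjusted Mueller-Hinton pH 7.3, 5.0×10^5 CFU/ml, 16-20 h. IC50 from curve fit; MIC is the lowest concentration with no growth; MFC/MBC from subculture.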

[3] = test system: Plasmodium falciparum D6 clone (Sierra Leon, chloroquine-sensitive); assay: In vitro antimalarial assay, chloroquine-sensitive D6 clone; assay type: cell-based; details: D6 clone; for IC50: converted with molecular weight, read-out: P. falciparum D6 IC50; for X more potent than chloroquine: molar IC50 ratio versus chloroquine
Procedure, shortened: (§1)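 Parasites grown in type A human RBCs; assay run on infected cell suspension at 2% parasitemia and 2% hematocrit, in duplicate at several concentrations. IC50 taken from dose curves, per the Makler method, with DMSO as vehicle; Vero cytotoxicity run in parallel to derive a selectivity index.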

[4] = test system: Plasmodium falciparum W2 clone (Indochina, chloroquine-resistant); assay: In vitro antimalarial assay, chloroquine-resistant W2 clone; assay type: cell-based; details: W2 clone; for IC50: converted with molecular weight, read-out: P. falciparum W2 IC50; for X more potent than chloroquine: molar IC50 ratio versus chloroquine
Procedure, shortened: as §1

[5] = test system: S. mansoni newly transformed schistosomula (NTS); assay: In vitro testing on Schistosoma mansoni newly transformed schistosomula (NTS), viability score; assay type: cell-based; details: NTS S. mansoni, 33 μM, 72 h
Procedure, shortened: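 Mechanically transformed S. mansoni (Liberian strain) NTS, cultured overnight, exposed at 100 per well to compound (from 10 mM DMSO stock; ≤1% DMSO controls) at 37 °C, 5% CO2 for 72 h. Viability scored microscopically from 3 (normal activity, intact tegument) to 0 (dead, granulated).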

[6] = promastigotes, 48 hours, Alamar Blue
[7] = promastigotes, 48 hours, Alamar Blue, read-out: L. donavani IC50

| SMILES | X more potent than Pentamidine [1] | L. donovani IC50 [1, 6] [µg/mL] | IC50 ([1]; promastigotes, 48 hours, Alamar Blue, HCl salt, read-out: L. donavani IC50) [nM] | S. aureus IC50 [2] [µg/mL] | IC50 ([2]; HCl salt) [nM] | X more potent than ciprofloxacen [2] | P. falciparum D6 IC50 [3] [µg/mL] | IC50 [3] [nM] | X more potent than chloroquine [3] | P. falciparum W2 IC50 [4] [µg/mL] | IC50 [4] [nM] | X more potent than chloroquine [4] | Effect at 72 h (%) [5] [%] | IC50 [1, 7] [nM] | IC50 [2] [nM] | IC50 ([1]; read-out: IC50 against L. donovani) [nM] |
| --- | --- | --- | --- | --- | --- | --- | --- | --- | --- | --- | --- | --- | --- | --- | --- | --- |
| CN1CCCN2CCN(CCCN(Cc3cccc(CN4CCCN5CCN(C)CCCN(CC5)CC4)c3)CC2)CC1.Cl.Cl.Cl.Cl.Cl.Cl.Cl.Cl [TJS04, m-CB-cyclams HCl salt] | 0.50 | 10.37 | 10600 | 9.280 | 9530 | 0.03 | 0.7450 | 852 | 0.04 | 0.6558 | 750 | 0.90 | 24.32 |  |  |  |
| c1ccc(CN2CCN3CCCN(CC2)CCN(Cc2ccccc2)CC3)cc1 [AW009, Bn2PBCyclen] | 0.10 | 21.40 |  | 2.010 |  | 0.05 | 1.0770 | 2740 | 0.01 | 1.5560 | 3960 | 0.17 |  | 54500 | 5120 |  |
| [Cl][Mn-2]([Cl])([Cl])[Cl].[Mn+2].c1ccc(CN2CCCN3CCCN(CCCN(Cc4ccccc4)CC3)CC2)cc1 [BME08, [Mn(Bn2PBCyclam)][MnCl4]] | 2 and 2.01 | 1.78 |  | 0.800 |  | 0.23 | 0.0967 | 144 | 0.25 | 0.1206 | 179 | 3.78 |  | 2650 | 1190 | 2650 |
| CC(=O)[O-].F[P-](F)(F)(F)(F)F.[Ni+2].c1ccc(CN2CCCN3CCCN(CCCN(Cc4ccccc4)CC3)CC2)cc1 [DJD22, [Ni(Bn2PBCyclam)(OAc)]PF6] | 0.28 | 13.10 |  | 4.630 |  | 0.04 | 0.7074 | 1040 | 0.04 | 0.9060 | 1330 | 0.51 |  | 19200 | 6780 |  |
| c1cc(CN2CCCN3CCCN(CCCNCC3)CC2)ccc1CN1CCCN2CCCN(CCCNCC2)CC1 [SLK10, p-H2PBCyclams] | 0.20 | 15.50 |  | 1.410 |  | 0.11 | 0.8657 | 1480 | 0.02 | 1.7920 | 3070 | 0.22 |  | 26600 | 2420 |  |
